In the METLIN SMRT retention time set (Domingo-Almenara et al. 2019) one finds RP-LC retention time data, which are given here for 59 molecules.

This series is described as follows: gradient 5% acetonitrile 3 min, to 50% in 2 min, to 85% in 15 min, held 3 min, 100 µL/min. The note with it: column: Zorbax Extend-C18 2.1 x 50 mm; eluents: water / acetonitrile, 0.1% formic acid. The method, boiled down:
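In both positive and negative ionization mode, a quadrupole time-of-flight mass spectrometer coupled to HPLC analyzed pure standards run in mixtures of ~100 molecules. The Zorbax Extend-C18 column (2.1 × 50 mm, 1.8 μm) was operated at 100 μL/min with water and acetonitrile, each containing 0.1% formic acid. The dead volume was 40 μL and the dwell volume 900 μL. Retention time came from adduct peaks that were computationally picked and individually inspected by hand.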
Molecule `CCOC(=O)CNC(=O)N1CC(CC)Oc2ccc(C)cc21` (centres undefined) yielded an RP-LC retention time of 935 s.

For the molecule `O=C(N[C@H]1C[C@@H]2C[C@H]1CN2C(=O)c1ccc(OC(F)(F)F)cc1)c1ccccc1`, the RP-LC retention time amounted to 786 s.

The molecule `O=C(Cn1c(=O)c2cccn2c2ccc(F)cc21)N1CCCCC1` came in with an RP-LC retention time of 795 s.

Consider `Cc1ccc(-c2noc(-c3ccc(=O)n(CCC(C)C)n3)n2)cc1`, for which the RP-LC retention time was 1280 s.

Turning to `CC(C)(C)C(=O)N1CCC2(CC1)CN(Cc1ccccc1)CC2CO` (centres undefined), the RP-LC retention time came to 607 s.

Molecule `COC(=O)c1ccc(NC(=O)C2=Cc3ccccc3OC=C2)cc1` came in with an RP-LC retention time of 1060 s.

For the molecule `O=C(CN1C(=O)CCc2cc(Br)ccc21)NCc1cccnc1`, the RP-LC retention time worked out at 614 s.

Take `CCOc1ccc(NC(=O)c2cccc(N3CCNC(c4ccccc4)C3)n2)cc1` (centres undefined): the RP-LC retention time is 700 s.

`CC(=O)N(Cc1nn(C)c2c1CN(S(=O)(=O)c1cccc(Cl)c1)CC2)c1ccccc1`: the RP-LC retention time amounted to 783 s.

`CC1=NS(=O)(=O)N(Cc2ccccc2)C=C1C(=O)OCc1noc(-c2cccc(C)c2)n1` displayed an RP-LC retention time of 1180 s.

In turn, `CC1CCCN(CCCNC(=O)c2nnc(-c3ccc(S(=O)(=O)N4CCOCC4)cc3)o2)C1` (centres undefined) displayed an RP-LC retention time of 634 s.

`Cc1c(-c2noc(C(=O)N3CCc4ccccc4C3)n2)oc2c(C)cccc12` yielded an RP-LC retention time of 1280 s.

In the case of `CCOC(=O)Cn1cc(S(=O)(=O)N2CCCCC2)ccc1=O`, the RP-LC retention time turned out to be 762 s.

The molecule `CS(=O)(=O)c1ccccc1C(=O)Nc1nc(-c2cc(Cl)sc2Cl)cs1` gave an RP-LC retention time of 1030 s.

With `CCOC(=O)N1CCN(C(=O)CN2CCC(COCc3ccccc3)CC2)CC1`, the RP-LC retention time stood at 571 s.

`CC(C)c1ccc(S(=O)(=O)N2C[C@@H](F)C[C@H]2C(=O)N2CCCCC2)cc1`: the RP-LC retention time came out at 930 s.

`COc1ccc(CN2CCC(NC(=O)c3ccc(C#N)cc3)C2)cn1` (centres undefined) returned an RP-LC retention time of 566 s.

Molecule `CCOC(=O)c1nc(Nc2ccc(C(=O)OC)cc2)c2ccccc2n1` registered an RP-LC retention time of 841 s.

In turn, `Cc1ccc(C)c(NC(=O)C2CCN(S(C)(=O)=O)c3cc(C)ccc3O2)c1` (centres undefined) gave an RP-LC retention time of 998 s.

Take `CC(=O)N1CCc2cc(-c3ccc(C(=O)NCCCN4CCCCC4C)cc3)ccc21` (centres undefined): the RP-LC retention time was 616 s.

For `O=C(Nc1ccc(OCc2nnc(-c3ccc(Cl)cc3)o2)cc1)c1ccsc1`, the RP-LC retention time was determined as 958 s.

`CC1CCN(c2cncnc2-n2cc(NC(=O)Cc3cccs3)cn2)CC1`: the RP-LC retention time was determined as 740 s.

Molecule `CCc1noc(-c2c(S(=O)(=O)NC3CCCC3)c(C)n(C)c2C)n1` returned an RP-LC retention time of 833 s.

On to `Cc1ccc(C)c(CNC(=O)Cn2cnc3onc(C)c3c2=O)c1`, for which the RP-LC retention time turned out to be 764 s.

Molecule `COc1ccc(CNC(=O)CN2CCc3[nH]c4c(OC)ccc(Cl)c4c(=O)c3C2)cc1` displayed an RP-LC retention time of 610 s.

`CCOCCCNC(=O)Cn1cccc1-c1nc(-c2ccc(Cl)cc2)cs1` returned an RP-LC retention time of 1060 s.

The molecule `Cc1ccc(C)c(CN2CCC(N3CCN(Cc4nc(C)no4)C3=O)C2)c1` (centres undefined) yielded an RP-LC retention time of 630 s.

Molecule `O=C(CSc1nnc2ccc(-c3cccc([N+](=O)[O-])c3)nn12)c1cccs1` had an RP-LC retention time of 774 s.

With `CCNc1cc(N2CCC(CCC(=O)NCc3ccc(F)cc3F)CC2)ncn1`, the RP-LC retention time stood at 669 s.

As to `O=C(Nc1cccnc1)c1cccc([N+](=O)[O-])c1`, the RP-LC retention time turned out to be 661 s.

For the molecule `Cc1ccc2sc(N(CCCn3ccnc3)C(=O)c3ccc4c(c3)OCCO4)nc2c1C`, the RP-LC retention time stood at 636 s.

For `CC1=NS(=O)(=O)N(C)C=C1C(=O)OCc1ccc(C#N)cc1`, the RP-LC retention time was found to be 842 s.

For `Cc1cc2ncn(CC3CCN(C(=O)c4ccsc4)CC3)c2cc1C`, the RP-LC retention time is 583 s.

Take `Cc1nc2c(c(Nc3cc(C(=O)O)ccc3C)n1)CCC2`: the RP-LC retention time was found to be 584 s.

In turn, `CCCCc1c(C)n(CC(=O)NCC2CCCO2)c2nc(-c3ccccc3)nn2c1=O` (centres undefined) returned an RP-LC retention time of 831 s.

For the molecule `Cc1cc(OCC(=O)Nc2cccc(Cl)c2C)nc(N2CCN(c3ccccc3)CC2)n1`, the RP-LC retention time was found to be 949 s.

On to `CC(=O)N1CCc2cc(C(=O)NC(C)C)ccc21`, for which the RP-LC retention time is 644 s.

`CN1CC(=O)NC(c2ccccc2Cl)C1=O` (centres undefined) gave an RP-LC retention time of 541 s.

Molecule `Cc1ccccc1-c1noc(Cc2nnc(-c3cc(F)cc(F)c3)o2)n1` came in with an RP-LC retention time of 1090 s.

Molecule `Cc1nc(-c2ccccc2)cc2nn(CC(=O)N3CCOCC3)c(=O)n12` gave an RP-LC retention time of 700 s.

On to `Cc1ccc(NC(=O)Cn2c(C(C)C)nc3c(c2=O)CCN(Cc2ccccc2)C3)c(C)c1`, for which the RP-LC retention time worked out at 705 s.

In the case of `CCOC(=O)c1cccc(NS(=O)(=O)c2c(C)nn(-c3ccc(-c4ccccc4)nn3)c2C)c1`, the RP-LC retention time was determined as 1070 s.

Consider `COC(=O)c1cc2c(cc1NC(=O)c1cc(-c3cccnc3)nc3ccccc13)OCO2`, for which the RP-LC retention time stood at 884 s.

Molecule `COc1ccc(C2Cn3nnc(-c4nc(-c5cccc(Cl)c5)no4)c3CO2)cc1` (centres undefined) gave an RP-LC retention time of 1250 s.

As for `Cn1cc(-c2ccncc2)cc1C(=O)N1CCN(c2ccccc2)CC1`, the RP-LC retention time worked out at 624 s.

`Cc1noc([C@@H]2CC(F)(F)CN2C(=O)c2ocnc2C)n1` yielded an RP-LC retention time of 685 s.

Molecule `CCn1c(C)c(C(C)=O)c2cc(OCC(O)CNC(C)c3ccccc3)ccc21` (centres undefined) gave an RP-LC retention time of 590 s.

In the case of `Cc1cccc(-c2nc(Nc3ccc(C(=O)O)cc3)c3ccccc3n2)c1`, the RP-LC retention time was determined as 689 s.

In turn, `O=C1CC(c2nc(-c3ccc(Br)cc3)no2)CN1c1ccccc1` (centres undefined) had an RP-LC retention time of 1080 s.

For the molecule `CN1C(=O)c2cc(S(=O)(=O)Nc3ccc(F)cc3F)ccc2Oc2cccnc21`, the RP-LC retention time was determined as 887 s.

Take `CC(=O)N1CCOc2ccc(S(=O)(=O)N3CCCC3C(=O)Nc3nccs3)cc21` (centres undefined): the RP-LC retention time amounted to 735 s.

Turning to `CCC(C)N(CCNC(=O)Cc1noc2ccccc12)Cc1ccco1` (centres undefined), the RP-LC retention time was found to be 664 s.

Molecule `Cc1ccc(Sc2nccnc2N2CCCC(C(=O)NCc3ccc(N(C)C)cc3)C2)cc1` (centres undefined) showed an RP-LC retention time of 837 s.

In the case of `Cc1ccc(Nc2c(-c3cccc(Cl)c3)nc3ccc(Cl)cn23)cc1`, the RP-LC retention time worked out at 1080 s.

In turn, `Cc1cc(C(=O)NCCc2c[nH]c3ccccc23)c2c(C)nn(-c3cccc(Cl)c3C)c2n1` yielded an RP-LC retention time of 1050 s.

On to `CC(C)CC(C)NC(=O)c1ccc(CN2C(=O)C3CCCN3C(=O)c3ccccc32)cc1` (centres undefined), for which the RP-LC retention time turned out to be 836 s.

In turn, `Fc1cc(F)cc(-c2nnc(Cc3nc(-c4ccccc4Cl)no3)o2)c1` displayed an RP-LC retention time of 1050 s.

`CCCNC(=O)c1cc2sc(C)c(CN3CCCCC3)c2[nH]1` showed an RP-LC retention time of 629 s.

As to `Cc1cccc(S(=O)(=O)NC2CCN(c3ccccc3)C2=O)c1` (centres undefined), the RP-LC retention time came out at 875 s.
